Molecules are shown by their SMILES.

Data set [1] is described as follows: Metabolic stability test in liver S9. The format is in vitro ADME. The settings on record: pH 7.4, human liver S9 2 mg protein/mL, LC/MS; for remaining at 10 min: unchanged form after 10 minutes at 37°C, read-out: Remaining rate in human liver S9 (%/10min); for remaining at 1 h: unchanged form after 60 minutes at 37°C, read-out: Remaining rate in human liver S9 (%/60min). Here is the method:
Human liver S9 (final concentration: 2 mg protein/mL), was suspended in 100 mM potassium phosphate buffer (pH 7.4, containing β-nicotinamide adenine dinucleotide phosphate: 1.3 mM, D-glucose-6- phosphate: 3.3 mM, magnesium chloride: 3.3 mM, glucose-6-phosphate dehydrogenase:0.4 U/mL). The suspension was mixed with a solution of a sample dissolved in DMSO. The solution was incubated at 37°C for 0, 10 and 60 minutes, and an acetonitrile containing formic acid (final concentration: 0.1%) was added thereto. The solutions were centrifuged, and the concentration of the sample (unchanged form) in the supernatant was determined by high performance liquid chromatography/mass spectrometry (LC/MS). Based on the data obtained, remaining rate (%) was calculated according to the following equation. Remaining rate(%) = amount of sample 0,10, or 60 minutes after [formula] incubation/amount of sample at zero time after incubation × 100 [formula]
(§1) With respect to the compounds obtained in Working Examples according to the present invention (Compounds 1-1 to 1-115, 2-1, 3-1, 3-2, and 4-1 to 4-4), the results of the remaining rate in human liver S9 and plasma are shown in Tables 28 to 32.

A short description of data set [2]: Stability test in buffer (pH 7.4). The note with it: phosphate buffer/acetonitrile 7:3, 100 mM potassium phosphate buffer (pH 7.4) and acetonitrile 7:3 (v/v), LC/MS; for remaining at 10 min: 10 minutes at 37°C, read-out: Buf. remaining rate (%/10min); for remaining at 1 h: 60 minutes at 37°C, read-out: Buf. remaining rate (%/60min). The format is physicochemical. Here is the method: In the tables, Buf. remaining rate was determined by stability test in buffer (pH 7.4) as described below. A sample dissolved in DMSO was mixed with a mixed solution of 100 mM potassium phosphate buffer and acetonitrile in the ratio of 7:3 (v/v). The mixture was incubated at 37°C for 0, 10, and 60 minutes, and acetonitrile containing formic acid (final concentration: 0.1%) was added thereto. The solution was centrifuged, and the concentration of the sample (unchanged form) in the supernatant was determined by high performance liquid chromatography/mass spectrometry (LC/MS). Based on the data obtained, Buf. remaining rate (%) was calculated according to the following equation. Buf.remaining rate(%) = amount of sample 0,10, or 60 minutes after incubation/amount of sample at zero time after incubation × 100 [formula]

Data set [3] is described as follows: Metabolic stability test in plasma. The format is in vitro ADME, human. The settings on record: LC/MS; for remaining at 10 min: unchanged form after 10 minutes at 37°C in human plasma, read-out: Remaining rate in human plasma (%/10min); for remaining at 1 h: unchanged form after 60 minutes at 37°C in human plasma, read-out: Remaining rate in human plasma (%/60min). The method, then:
A sample dissolved in DMSO was added to plasma of human or animal species (mouse and hamster). The solutions were incubated at 37°C for 0, 10 and 60 minutes, and acetonitrile containing formic acid (final concentration: 0.1%) was added thereto. The solutions were centrifuged, and the concentration of the sample (unchanged form) in the supernatant was determined by high performance liquid chromatography/mass spectrometry (LC/MS). Based on the data obtained, the remaining rate (%) was calculated according to the following equation. Remaining rate(%) = amount of sample 0,10, or 60 minutes after incubation/amount of sample at zero time after incubation × 100 [formula]
as §1

For `COC(=O)c1ccc(OC(=O)CCCc2ccc(NC(=O)c3ccccc3-c3ccc(C(F)(F)F)cc3)c(C(=O)N3CCCC3)c2)cc1` [Compound 1-15, 4-(4-{3-(pyrrolidine-1-carbonyl)-4-[(4'-trifluoromethylbiphenyl-2-carbonyl)amino]phenyl}butyryloxy)benzoic acid methyl ester], the remaining at 10 min in data set [1] turned out to be 4%; in data set [2], 98%; in data set [3] it was 42%. Further, the results for the remaining at 1 h in data set [1], in data set [2] and in data set [3] were 0%, 100% and 0%, respectively.
On to `CCOC(=O)c1ccc(OC(=O)CCCc2ccc(NC(=O)c3ccccc3-c3ccc(C(F)(F)F)cc3)c(C(=O)N3CCCC3)c2)c(F)c1` [Compound 1-16, 3-fluoro-4-(4-{3-(pyrrolidine-1-carbonyl)-4-[(4'-trifluoromethylbiphenyl-2-carbonyl)amino]phenyl)butyryloxy)benzoic acid ethyl ester], for which the remaining at 10 min amounted to 2% in data set [1], 98% in data set [2] and 3% in data set [3]. Moreover, the remaining at 1 h is 0% in data set [1], 103% in data set [2] and 0% in data set [3].
Turning to `COC(=O)c1ccc(OC(=O)CCCc2ccc(NC(=O)c3ccccc3-c3ccc(C(F)(F)F)cc3)c(C(=O)N(C)C)c2)cc1OC` [Compound 1-17, 4-(4-{3-dimethylcarbamoyl-4-[(4'-trifluoromethylbiphenyl-2-carbonyl)amino]phenyl}butyryloxy) -2-methoxybenzoic acid methyl ester], the remaining at 10 min in data set [1] is 0%; in data set [2] it was 100%; in data set [3] it was 0%. In addition, the remaining at 1 h came to 0% in data set [1], 105% in data set [2] and 0% in data set [3].
On to `COC(=O)c1ccc(OC(=O)CCCc2ccc(NC(=O)c3ccccc3-c3ccc(C(F)(F)F)cc3)c(C(=O)N(C)C)c2)cc1Cl` [Compound 1-18, 2-chloro-4-(4-{3-dimethylcarbamoyl-4-[(4'-trifluoromethylbiphenyl-2-carbonyl)amino]phenyl}butyryloxy)benzoic acid methyl ester], for which the remaining at 10 min came to 0% in data set [1], 101% in data set [2] and 0% in data set [3]. Moreover, the remaining at 1 h in data set [1] came out at 0%; in data set [2], 98%; in data set [3], 0%.
In the case of `COC(=O)c1ccc(OC(=O)CCCc2ccc(NC(=O)c3ccccc3-c3ccc(C(F)(F)F)cn3)c(C(=O)N(C)C)c2)cc1` [Compound 1-19, 4-(4-{3-dimethylcarbamoyl-4-[2-(5-trifluoromethylpyridin-2-yl)benzoylamino]phenyl}butyryloxy)benzoic acid methyl ester], the remaining at 10 min in data set [1] was found to be 0%; in data set [2], 107%; in data set [3] it was 0%. Further, the figures for the remaining at 1 h in data set [1], in data set [2] and in data set [3] were 0%, 100% and 0%, respectively.
Turning to `COC(=O)c1ccc(OC(=O)CCCc2ccc(NC(=O)c3ccccc3-c3ccc(C(F)(F)F)cc3)c(C(=O)N(C)C)c2)c(C(F)(F)F)c1` [Compound 1-20, 4-(4-{3-dimethylcarbamoyl-4-[(4'-trifluoromethylbiphenyl-2-carbonyl)amino]phenyl}butyryloxy)-3-trifluoromethylbenzoic acid methyl ester], the values for the remaining at 10 min in data set [1], in data set [2] and in data set [3] were 0%, 102% and 0%, respectively. Moreover, the remaining at 1 h in data set [1] turned out to be 0%; in data set [2] it was 99%; in data set [3] it was 0%.
In the case of `COC(=O)c1ccc(OC(=O)CCCc2ccc(NC(=O)c3ccccc3-c3ccc(C(F)(F)F)cc3)c(C(=O)N(C)C)c2)cc1C(F)(F)F` [Compound 1-21, 4-(4-{3-dimethylcarbamoyl-4-[(4'-trifluoromethylbiphenyl-2-carbonyl)amino]phenyl}butyryloxy)-2-trifluoromethylbenzoic acid methyl ester], the remaining at 10 min in data set [1] is 0%; in data set [2] it was 104%; in data set [3] it was 0%. Moreover, the remaining at 1 h in data set [1] stood at 0%; in data set [2], 103%; in data set [3] it was 0%.
Turning to `CC(=O)c1ccc(OC(=O)CCCc2ccc(NC(=O)c3ccccc3-c3ccc(C(F)(F)F)cc3)c(C(=O)N(C)C)c2)cc1` [Compound 1-22, 4-(3-dimethylcarbamoyl-4-[(4'-trifluoromethylbiphenyl-2-carbonyl)amino]phenyl}butyric acid 4-acetylphenyl ester], the remaining at 10 min in data set [1] amounted to 0%; in data set [2], 96%; in data set [3], 8%. Further, the remaining at 1 h in data set [1] came to 0%; in data set [2], 98%; in data set [3], 0%.
For `CN(C)C(=O)c1cc(CCCC(=O)Oc2ccc(C#N)cc2)ccc1NC(=O)c1ccccc1-c1ccc(C(F)(F)F)cc1` [Compound 1-23, 4-{3-dimethylcarbamoyl-4-[(4'-trifluoromethylbiphenyl-2-carbonyl)amino]phenyl}butyric acid 4-cyanophenyl ester], the remaining at 10 min in data set [1] amounted to 0%; in data set [2] it was 99%; in data set [3], 21%. In addition, the remaining at 1 h in data set [1] worked out at 0%; in data set [2] it was 99%; in data set [3], 0%.
Regarding `CN(C)C(=O)c1cc(CCCC(=O)Oc2ccc(C(=O)OCc3ccccc3)cc2)ccc1NC(=O)c1ccccc1-c1ccc(C(F)(F)F)cc1` [Compound 1-24, 4-(4-{3-dimethylcarbamoyl-4-[(4'-trifluoromethylbiphenyl-2-carbonyl)amino]phenyl}butyryloxy)benzoic acid benzyl ester], the remaining at 10 min in data set [1] is 10%; in data set [2], 95%; in data set [3], 9%. Moreover, the figures for the remaining at 1 h in data set [1], in data set [2] and in data set [3] were 6%, 95% and 4%, respectively.
Regarding `CN(C)C(=O)c1cc(CCCC(=O)Oc2ccc(C(=O)O)cc2)ccc1NC(=O)c1ccccc1-c1ccc(C(F)(F)F)cc1` [Compound 1-25, 4-(4-{3-dimethylcarbamoyl-4-[(4'-trifluoromethylbiphenyl-2-carbonyl)amino]phenyl}butyryloxy) benzoic acid], the remaining at 10 min in data set [1] came out at 4%; in data set [2], 99%; in data set [3], 89%. For the same molecule, the remaining at 1 h in data set [1] is 0%; in data set [2] it was 101%; in data set [3], 59%.
`COC(=O)c1ccc(OC(=O)CCCc2ccc(NC(=O)c3ccccc3-c3ccc(C(F)(F)F)cc3)c(C(=O)N3CCOCC3)c2)cc1` [Compound 1-26, 4-(4-{3-(morpholine-4-carbonyl)-4-[(4'-trifluoromethylbiphenyl-2-carbonyl)amino]phenyl}butyryloxy)benzoic acid methyl ester]: the remaining at 10 min in data set [1] was 0%; in data set [2] it was 99%; in data set [3] it was 23%. The remaining at 1 h in data set [1] turned out to be 0%; in data set [2], 102%; in data set [3], 0%.
For the molecule `COC(=O)c1ccc(OC(=O)CCc2ccc(NC(=O)c3ccccc3-c3ccc(C(F)(F)F)cc3)c(C(=O)N(C)C)c2)cc1` [Compound 1-27, 4-(3-{3-dimethylcarbamoyl-4-[(4'-trifluoromethylbiphenyl-2-carbonyl)amino]phenyl}propionyloxy)benzoic acid methyl ester], the remaining at 10 min in data set [1] stood at 0%; in data set [2], 97%; in data set [3], 10%. Further, the remaining at 1 h turned out to be 0% in data set [1], 102% in data set [2] and 0% in data set [3].

These data come from EP1803452A1, “ESTER DERIVATIVE AND PHARMACEUTICAL USE THEREOF” (Japan Tobacco, Inc., priority 2004, dated 2006).
